Test results as given in ChEMBL document CHEMBL1148620 (J Med Chem, 2006).
pEC50, pIC50, pKi: −log10 of the molar value.

What was measured:
[1] = biological target: T1, Melanocortin receptor 4 (Homo sapiens, UniProt P32245, Y287A); experiment: Displacement of [125I]NDP-alpha-MSH from mutant MC4R Y287A expressed in HEK293 cells; type: cell-based
[2] = biological target: T1, Melanocortin receptor 4; experiment: Agonist activity at the mutant MC4R Y287A expressed in HEK293 cells by cAMP accumulation; type: functional, cell-based
[3] = biological target: T2, Melanocortin receptor 4 (Homo sapiens, UniProt P32245, F184A); experiment: Agonist activity at the mutant MC4R F184A expressed in HEK293 cells by cAMP accumulation; type: functional, cell-based
T2 sequence (P32245 whole entry F184A): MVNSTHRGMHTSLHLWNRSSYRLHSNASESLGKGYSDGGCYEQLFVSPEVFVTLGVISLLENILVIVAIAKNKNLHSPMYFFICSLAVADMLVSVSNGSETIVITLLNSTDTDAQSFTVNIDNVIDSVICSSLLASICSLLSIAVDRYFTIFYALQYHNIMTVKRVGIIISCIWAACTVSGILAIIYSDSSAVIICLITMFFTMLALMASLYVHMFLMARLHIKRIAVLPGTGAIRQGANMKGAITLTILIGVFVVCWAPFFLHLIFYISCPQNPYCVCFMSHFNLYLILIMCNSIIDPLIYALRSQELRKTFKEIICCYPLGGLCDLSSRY

[4] = biological target: T3, Melanocortin receptor 4 (Homo sapiens, UniProt P32245, I129A)
T3 sequence (P32245 whole entry I129A): as the sequence (P32245 whole entry F184A) above, with I129A, A184F counted along it

[5] = biological target: T4, Melanocortin receptor 4 (Homo sapiens, UniProt P32245, I125A); experiment: Displacement of [125I]NDP-alpha-MSH from mutant MC4R I125A expressed in HEK293 cells; type: cell-based
T4 sequence (P32245 whole entry I125A): as the sequence (P32245 whole entry F184A) above, with I125A, A184F counted along it

[6] = biological target: T3, Melanocortin receptor 4; experiment: biochemical
[7] = biological target: T5, Melanocortin receptor 4 (Homo sapiens, UniProt P32245, I291A); experiment: Agonist activity at the mutant MC4R I291A expressed in HEK293 cells by cAMP accumulation; type: functional, cell-based
T5 sequence (P32245 whole entry I291A): as the sequence (P32245 whole entry F184A) above, with A184F, I291A counted along it

[8] = biological target: T4, Melanocortin receptor 4; experiment: Agonist activity at the mutant MC4R I125A expressed in HEK293 cells by cAMP accumulation; type: functional, cell-based
[9] = biological target: T2, Melanocortin receptor 4; experiment: Displacement of [125I]NDP-alpha-MSH from mutant MC4R F184A expressed in HEK293 cells; type: cell-based
[10] = biological target: T6, Melanocortin receptor 4 (Homo sapiens, UniProt P32245, Y268A); experiment: Agonist activity at the mutant MC4R Y268A expressed in HEK293 cells by cAMP accumulation; type: functional, cell-based
T6 sequence (P32245 whole entry Y268A): as the sequence (P32245 whole entry F184A) above, with A184F, Y268A counted along it

[11] = biological target: T6, Melanocortin receptor 4; experiment: Displacement of [125I]NDP-alpha-MSH from mutant MC4R Y268A expressed in HEK293 cells; type: cell-based
[12] = biological target: T7, Melanocortin receptor 4 (Homo sapiens, UniProt P32245); experiment: biochemical
T7 sequence (P32245 whole entry): as the sequence (P32245 whole entry F184A) above, with A184F counted along it

[13] = biological target: T8, Melanocortin receptor 4 (Homo sapiens, UniProt P32245, Y287F); experiment: Displacement of [125I]NDP-alpha-MSH from mutant MC4R Y287F expressed in HEK293 cells; type: cell-based
T8 sequence (P32245 whole entry Y287F): as the sequence (P32245 whole entry F184A) above, with A184F, Y287F counted along it

[14] = biological target: T9, Melanocortin receptor 4 (Homo sapiens, UniProt P32245, Y268F); experiment: Agonist activity at the mutant MC4R Y268F expressed in HEK293 cells by cAMP accumulation; type: functional, cell-based
T9 sequence (P32245 whole entry Y268F): as the sequence (P32245 whole entry F184A) above, with A184F, Y268F counted along it

[15] = biological target: T8, Melanocortin receptor 4; experiment: Agonist activity at the mutant MC4R Y287F expressed in HEK293 cells by cAMP accumulation; type: functional, cell-based
[16] = biological target: T7, Melanocortin receptor 4; experiment: Agonist activity at the human wild type MC4R expressed in HEK293 cells by cAMP accumulation; type: functional, cell-based
[17] = biological target: T9, Melanocortin receptor 4; experiment: Displacement of [125I]NDP-alpha-MSH from mutant MC4R Y268F expressed in HEK293 cells; type: cell-based
[18] = biological target: T7, Melanocortin receptor 4; experiment: Antagonist activity at the human wild type MC4R expressed in HEK293 cells by cAMP accumulation; type: functional, cell-based
[19] = biological target: T5, Melanocortin receptor 4; experiment: Antagonist activity at the mutant MC4R I291A expressed in HEK293 cells by cAMP accumulation; type: functional, cell-based
[20] = biological target: T1, Melanocortin receptor 4; experiment: Antagonist activity at the mutant MC4R Y287A expressed in HEK293 cells by cAMP accumulation; type: functional, cell-based
[21] = biological target: T2, Melanocortin receptor 4; experiment: Antagonist activity at the mutant MC4R F184A expressed in HEK293 cells by cAMP accumulation; type: functional, cell-based
[22] = biological target: T4, Melanocortin receptor 4; experiment: Antagonist activity at the mutant MC4R I125A expressed in HEK293 cells by cAMP accumulation; type: functional, cell-based
[23] = biological target: T6, Melanocortin receptor 4; experiment: Antagonist activity at the mutant MC4R Y268A expressed in HEK293 cells by cAMP accumulation; type: functional, cell-based
[24] = biological target: T8, Melanocortin receptor 4; experiment: Antagonist activity at the mutant MC4R Y287F expressed in HEK293 cells by cAMP accumulation; type: functional, cell-based
[25] = biological target: T9, Melanocortin receptor 4; experiment: Antagonist activity at the mutant MC4R Y268F expressed in HEK293 cells by cAMP accumulation; type: functional, cell-based

T1 sequence (P32245 whole entry Y287A): as the sequence (P32245 whole entry F184A) above, with A184F, Y287A counted along it

pKi [1] | pEC50 [2] | pEC50 [3] | pEC50 [4] | pKi [5] | pKi [6] | pEC50 [7] | pEC50 [8] | pKi [9] | pEC50 [10] | pKi [11] | pKi [12] | pKi [13] | pEC50 [14] | pEC50 [15] | pEC50 [16] | pKi [17] | Compound | also measured
5.83 | 6.48 | 8.49 | 6.60 | 6.95 | 6.15 | 6.60 | 6.69 | 7.54 | 6.57 | 5.86 | 7.23 | 7.05 | 7.92 | 8.02 | 7.96 | 7.08 | CC[C@H](C)[C@@H]1NC(=O)[C@H]([C@@H](C)O)NC(=O)[C@H](Cc2c[nH]c3ccccc23)NC(=O)[C@H](CCCN=C(N)N)NC(=O)[C@@H](Cc2ccccc2)NC(=O)[C@H](Cc2cnc[nH]2)NC(=O)[C@H]([C@@H](C)O)NC(=O)[C@H](Cc2ccc(O)cc2)NC(=O)[C@H](CO)NC(=O)[C@@H]2CCCN2C1=O | 
7.74 |  |  |  | 8.89 | 7.85 |  |  | 9.15 |  | 7.40 | 8.82 | 8.77 |  |  |  | 9.04 | CC[C@H](C)[C@@H]1NC(=O)[C@H]([C@@H](C)O)NC(=O)[C@H](Cc2c[nH]c3ccccc23)NC(=O)[C@H](CCCN=C(N)N)NC(=O)[C@@H](Cc2cccc3ccccc23)NC(=O)[C@H](Cc2c[nH]cn2)NC(=O)[C@H]([C@@H](C)O)NC(=O)[C@H](Cc2ccc(O)cc2)NC(=O)[C@H]([C@@H](C)O)NC(=O)[C@@H]2CCCN2C1=O | pIC50 [18]: 7.80; pIC50 [19]: 7.66; pIC50 [20]: 6.92; pIC50 [21]: 7.96; pIC50 [22]: 8.24; pIC50 [23]: 6.61; pIC50 [24]: 8.06; pIC50 [25]: 7.77
5.67 | 6.38 | 8.99 | 5.82 | 5.90 | 5.51 | < 6.00 | 7.28 | 6.94 | 7.48 | 5.99 | 6.52 | 6.05 | 8.18 | 8.00 | 8.02 | 6.56 | CN(C)[C@H]1C[C@@H](C(=O)N2CCC(Cn3cncn3)(C3CCCCC3)CC2)[C@H](c2ccc(Cl)cc2)C1 | 
